We go through 14 molecules from patent publication US12448389B2, “BRM targeting compounds and associated methods of use” (Prelude Therapeutics Incorporated, priority 2020, dated 2025).

In one test the target is T1, SMARCA4-HiBiT (Homo sapiens, UniProt P51532).
T1 construct: SMARCA4-HiBiT knock-in Hela monoclonal cell (CS3023226); host or cells: HeLa monoclonal knock-in line (CRISPR HiBiT knock-in at the endogenous locus, heterozygous)
In words: SMARCA4 HiBiT degradation assay in HeLa cells. Type of test: cell-based. The settings on record: 18 hours incubation; for DC50: read-out: HeLa-HiBit-SM4 DC50; for Dmax: HeLa, read-out: HeLa-HiBit-SM4 Dmax (%). The essentials:
(§1)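 HeLa monoclonal lines with heterozygous HiBiT knock-in were seeded at 2500 cells/well in EMEM with 10% FBS and treated with compound for 18 h at 37 °C. Remaining tagged protein was measured by Nano-Glo HiBiT lytic luminescence after 30–60 min at RT, and values came from curve fitting.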
(In general: HiBiT is a short tag that completes a luciferase, so light tracks the accessible tagged protein.)

A further test has as its target T2, SMARCA2-HiBiT (Homo sapiens, UniProt P51531).
T2 construct: SMARCA2-HiBiT knock-in Hela monoclonal cell (CS302366); host or cells: HeLa monoclonal knock-in line (CRISPR HiBiT knock-in at the endogenous locus, heterozygous)
The test can be described thus: SMARCA2 HiBiT degradation assay in HeLa cells. To be noted: 18 hours incubation; for DC50: read-out: HeLa_HiBit-SM2 DC50; for Dmax: HeLa, read-out: HeLa-HiBit-SM2 Dmax (%). Type of test: cell-based. The essentials: as §1

Bounds are passed on as bounds.

T1 sequence (P51532 whole entry): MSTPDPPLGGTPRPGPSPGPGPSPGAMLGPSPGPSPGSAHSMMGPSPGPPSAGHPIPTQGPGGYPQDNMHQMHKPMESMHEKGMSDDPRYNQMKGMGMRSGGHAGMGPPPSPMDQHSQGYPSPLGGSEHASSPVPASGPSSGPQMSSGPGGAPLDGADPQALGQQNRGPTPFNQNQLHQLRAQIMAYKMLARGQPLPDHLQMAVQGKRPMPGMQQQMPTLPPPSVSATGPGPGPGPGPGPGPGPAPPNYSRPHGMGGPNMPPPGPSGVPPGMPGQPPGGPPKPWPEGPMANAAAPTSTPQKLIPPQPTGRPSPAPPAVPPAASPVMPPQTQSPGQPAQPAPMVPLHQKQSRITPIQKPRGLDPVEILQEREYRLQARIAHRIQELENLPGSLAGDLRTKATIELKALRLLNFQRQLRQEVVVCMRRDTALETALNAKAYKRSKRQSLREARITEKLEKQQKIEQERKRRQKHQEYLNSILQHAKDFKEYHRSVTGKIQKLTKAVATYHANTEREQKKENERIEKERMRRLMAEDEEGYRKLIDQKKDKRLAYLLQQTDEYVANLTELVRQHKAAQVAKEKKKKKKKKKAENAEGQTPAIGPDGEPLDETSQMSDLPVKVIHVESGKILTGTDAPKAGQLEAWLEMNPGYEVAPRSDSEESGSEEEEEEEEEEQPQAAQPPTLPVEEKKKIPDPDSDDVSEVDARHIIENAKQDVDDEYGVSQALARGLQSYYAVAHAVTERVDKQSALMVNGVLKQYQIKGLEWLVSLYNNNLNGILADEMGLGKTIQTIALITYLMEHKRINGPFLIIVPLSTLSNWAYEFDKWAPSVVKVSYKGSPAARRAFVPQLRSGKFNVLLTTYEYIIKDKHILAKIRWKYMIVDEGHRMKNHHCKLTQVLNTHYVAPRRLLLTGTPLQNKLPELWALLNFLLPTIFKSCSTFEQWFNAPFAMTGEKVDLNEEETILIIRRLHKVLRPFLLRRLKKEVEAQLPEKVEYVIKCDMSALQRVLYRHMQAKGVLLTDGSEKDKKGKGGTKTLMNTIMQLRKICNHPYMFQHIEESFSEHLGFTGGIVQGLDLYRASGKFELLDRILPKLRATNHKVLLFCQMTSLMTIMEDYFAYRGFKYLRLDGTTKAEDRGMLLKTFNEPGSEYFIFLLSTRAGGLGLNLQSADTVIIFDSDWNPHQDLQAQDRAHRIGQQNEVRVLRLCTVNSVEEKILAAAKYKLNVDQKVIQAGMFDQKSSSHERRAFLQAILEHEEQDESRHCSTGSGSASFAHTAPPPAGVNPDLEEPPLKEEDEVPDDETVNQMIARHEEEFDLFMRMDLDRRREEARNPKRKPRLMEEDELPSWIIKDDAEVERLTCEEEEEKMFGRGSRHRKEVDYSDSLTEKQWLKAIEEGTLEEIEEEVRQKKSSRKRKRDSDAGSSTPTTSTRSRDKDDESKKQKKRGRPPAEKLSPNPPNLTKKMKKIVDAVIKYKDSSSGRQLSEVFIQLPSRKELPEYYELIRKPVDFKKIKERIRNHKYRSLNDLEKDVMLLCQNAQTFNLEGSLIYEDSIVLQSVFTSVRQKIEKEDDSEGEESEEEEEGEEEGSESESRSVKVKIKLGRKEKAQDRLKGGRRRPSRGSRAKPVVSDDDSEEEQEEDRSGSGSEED
T2 sequence (P51531 whole entry): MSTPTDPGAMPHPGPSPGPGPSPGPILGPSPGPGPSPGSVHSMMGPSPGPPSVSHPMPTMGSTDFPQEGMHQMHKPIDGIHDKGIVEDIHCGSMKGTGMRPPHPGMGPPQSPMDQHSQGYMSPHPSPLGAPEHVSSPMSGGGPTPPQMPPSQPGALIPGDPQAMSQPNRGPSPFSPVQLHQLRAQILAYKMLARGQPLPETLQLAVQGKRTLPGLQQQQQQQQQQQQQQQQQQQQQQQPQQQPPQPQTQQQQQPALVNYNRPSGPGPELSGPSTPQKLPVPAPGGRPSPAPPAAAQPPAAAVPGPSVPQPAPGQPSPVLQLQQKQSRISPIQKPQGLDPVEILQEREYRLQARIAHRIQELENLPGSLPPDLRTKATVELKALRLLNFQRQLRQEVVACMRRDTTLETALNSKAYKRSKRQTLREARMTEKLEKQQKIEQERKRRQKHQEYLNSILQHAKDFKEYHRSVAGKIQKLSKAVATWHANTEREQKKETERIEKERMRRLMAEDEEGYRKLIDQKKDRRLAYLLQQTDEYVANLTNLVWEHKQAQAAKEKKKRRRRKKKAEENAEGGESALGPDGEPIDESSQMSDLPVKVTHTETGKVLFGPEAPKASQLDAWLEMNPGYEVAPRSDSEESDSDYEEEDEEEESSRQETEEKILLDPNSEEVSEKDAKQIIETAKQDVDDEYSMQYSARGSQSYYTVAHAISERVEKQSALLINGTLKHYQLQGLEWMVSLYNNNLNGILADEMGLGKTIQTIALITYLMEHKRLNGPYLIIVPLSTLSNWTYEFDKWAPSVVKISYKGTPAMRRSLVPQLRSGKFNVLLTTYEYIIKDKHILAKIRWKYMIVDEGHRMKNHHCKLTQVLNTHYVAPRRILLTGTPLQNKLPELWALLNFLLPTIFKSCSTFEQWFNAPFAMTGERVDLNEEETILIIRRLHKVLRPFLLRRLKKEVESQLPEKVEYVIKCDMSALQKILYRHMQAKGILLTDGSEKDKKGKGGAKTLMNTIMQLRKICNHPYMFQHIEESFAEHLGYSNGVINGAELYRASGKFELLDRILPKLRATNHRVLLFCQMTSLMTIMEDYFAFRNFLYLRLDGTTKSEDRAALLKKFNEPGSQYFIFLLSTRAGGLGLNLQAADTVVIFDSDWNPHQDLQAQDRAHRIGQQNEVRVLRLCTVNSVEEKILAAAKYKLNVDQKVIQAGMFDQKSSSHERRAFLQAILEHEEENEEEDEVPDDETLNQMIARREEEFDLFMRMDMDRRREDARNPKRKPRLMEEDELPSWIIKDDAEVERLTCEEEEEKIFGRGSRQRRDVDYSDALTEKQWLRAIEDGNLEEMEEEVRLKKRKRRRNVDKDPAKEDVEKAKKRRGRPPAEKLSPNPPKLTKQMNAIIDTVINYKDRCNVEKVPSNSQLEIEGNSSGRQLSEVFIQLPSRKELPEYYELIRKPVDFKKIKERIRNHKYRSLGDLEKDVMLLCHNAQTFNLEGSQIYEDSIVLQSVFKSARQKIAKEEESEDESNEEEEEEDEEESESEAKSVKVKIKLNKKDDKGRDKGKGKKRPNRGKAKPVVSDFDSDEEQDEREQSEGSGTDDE

By DC50 is commonly meant the concentration at which degradation of the target reaches its halfway point. What is called Dmax is the greatest extent of degradation seen. As for `O=C1CCC(N2Cc3cc(OCCN4CCC(N5CCN6c7cc(-c8ccccc8O)nnc7NC[C@H]6C5)C4)ccc3C2=O)C(=O)N1` (stereo partly drawn) [Example 256, 3-(5-(2-(3-((S)-2-(2-hydroxyphenyl)-5,6,6a,7,9,10-hexahydro-8H-pyrazino[1′,2′:4,5]pyrazino[2,3-c]pyridazin-8-yl)pyrrolidin-1-yl)ethoxy)-1-oxoisoindolin-2-yl)piperidine-2,6-dione], at SMARCA4-HiBiT, the DC50 is 10 to 100 nM and the Dmax fell in the range of 50 to 75%. Moreover, at SMARCA2-HiBiT, the 50% degradation concentration (DC50) lay in the range of 10 to 100 nM and the Dmax is 50 to 75%.
As to `CC1(C)CN(CC2CCN(c3ccc4c(c3)C(=O)N(C3CCC(=O)NC3=O)C4=O)CC2)CCC1CN1CCN2c3cc(-c4ccccc4O)nnc3NC[C@H]2C1` (stereo partly drawn) [Example 257, 2-(2,6-dioxopiperidin-3-yl)-5-(4-((4-(((S)-2-(2-hydroxyphenyl)-5,6,6a,7,9,10-hexahydro-8H-pyrazino[1′,2′:4,5]pyrazino[2,3-c]pyridazin-8-yl)methyl)-3,3-dimethylpiperidin-1-yl)methyl)piperidin-1-yl)isoindoline-1,3-dione], the DC50 at SMARCA4-HiBiT and at SMARCA2-HiBiT was < 10 nM each time. Further, the Dmax on SMARCA4-HiBiT and at SMARCA2-HiBiT was > 85% throughout.
Take `O=C1CCC(N2C(=O)c3ccc(N4CC5(CC(N6C[C@@H]7[C@@H](CN8CCN9c%10cc(-c%11ccccc%11O)nnc%10NC[C@H]9C8)[C@@H]7C6)C5)C4)cc3C2=O)C(=O)N1` (stereo partly drawn) [Example 259, 2-(2,6-dioxopiperidin-3-yl)-5-(6-((1R,5S,6s)-6-(((S)-2-(2-hydroxyphenyl)-5,6,6a,7,9,10-hexahydro-8H-pyrazino[1′,2′:4,5]pyrazino[2,3-c]pyridazin-8-yl)methyl)-3-azabicyclo[3.1,0]hexan-3-yl)-2-azaspiro[3.3]heptan-2-yl)isoindoline-1,3-dione]: on SMARCA4-HiBiT, the DC50 was < 10 nM and the maximal degradation (Dmax) was 75 to 85%. Further, on SMARCA2-HiBiT, the DC50 is < 10 nM and the Dmax is > 85%.
For `O=C1CCC(N2C(=O)c3ccc(N4CCC(CN5CCC(CN6CCN7c8cc(-c9ccccc9O)nnc8NC[C@H]7C6)C(F)(F)C5)CC4)cc3C2=O)C(=O)N1` (stereo partly drawn) [Example 260, 5-(4-((3,3-difluoro-4-(((S)-2-(2-hydroxyphenyl)-5,6,6a,7,9,10-hexahydro-8H-pyrazino[1′,2′:4,5]pyrazino[2,3-c]pyridazin-8-yl)methyl)piperidin-1-yl)methyl)piperidin-1-yl)-2-(2,6-dioxopiperidin-3-yl)isoindoline-1,3-dione], at SMARCA4-HiBiT, the DC50 was 10 to 100 nM and the Dmax is 75 to 85%. Also, on SMARCA2-HiBiT, the DC50 was < 10 nM and the Dmax was 75 to 85%.
As to `O=C1CCC(N2Cc3ccc(N4CC[C@H](CN5CCC(C(=O)N6CCN7c8cc(-c9ccccc9O)nnc8NC[C@H]7C6)CC5)[C@@H](F)C4)cc3C2=O)C(=O)N1` (stereo partly drawn) [Example 261, 3-(6-((3R,4R)-3-fluoro-4-((4-((S)-2-(2-hydroxyphenyl)-6,6a,7,8,9,10-hexahydro-5H-pyrazino[1′,2′:4,5]pyrazino[2,3-c]pyridazine-8-carbonyl)piperidin-1-yl)methyl)piperidin-1-yl)-1-oxoisoindolin-2-yl)piperidine-2,6-dione], the DC50 on SMARCA4-HiBiT was 10 to 100 nM; at SMARCA2-HiBiT, < 10 nM. Moreover, the Dmax at SMARCA4-HiBiT was 75 to 85%; on SMARCA2-HiBiT, > 85%.
The like results for `O=C1CCC(N2Cc3ccc(N4CCC(CN5CCN(C(=O)N6CCN7c8cc(-c9ccccc9O)nnc8NC[C@H]7C6)C6(CC6)C5)CC4)cc3C2=O)C(=O)N1` (stereo partly drawn) [Example 262, 3-(6-(4-((4-((S)-2-(2-hydroxyphenyl)-6,6a,7,8,9,10-hexahydro-5H-pyrazino[1′,2′:4,5]pyrazino[2,3-c]pyridazine-8-carbonyl)-4,7-diazaspiro[2.5]octan-7-yl)methyl)piperidin-1-yl)-1-oxoisoindolin-2-yl)piperidine-2,6-dione] were, in that order, < 10 nM, < 10 nM, > 85% and > 85%.
The like results for `O=C1CCC(N2C(=O)c3cc(F)c(N4CCN(CC5CCN(C(=O)N6CCN7c8cc(-c9ccccc9O)nnc8NC[C@H]7C6)CC5)CC4)cc3C2=O)C(=O)N1` (stereo partly drawn) [Example 263, 2-(2,6-dioxopiperidin-3-yl)-5-fluoro-6-(4-((1-((S)-2-(2-hydroxyphenyl)-6,6a,7,8,9,10-hexahydro-5H-pyrazino[1′,2′:4,5]pyrazino[2,3-c]pyridazine-8-carbonyl)piperidin-4-yl)methyl)piperazin-1-yl)isoindoline-1,3-dione] were, in that order, 10 to 100 nM, < 10 nM, ≤ 50% and ≤ 50%.
In the case of `CC1CN(CC2CCN(c3ccc4c(c3)C(=O)N(C3CCC(=O)NC3=O)C4)CC2)CCC1C(=O)N1CCN2c3cc(-c4ccccc4O)nnc3NC[C@H]2C1` (stereo partly drawn) [Example 264, 3-(6-(4-((4-((S)-2-(2-hydroxyphenyl)-6,6a,7,8,9,10-hexahydro-5H-pyrazino[1′,2′:4,5]pyrazino[2,3-c]pyridazine-8-carbonyl)-3-methylpiperidin-1-yl)methyl)piperidin-1-yl)-1-oxoisoindolin-2-yl)piperidine-2,6-dione], on SMARCA4-HiBiT, the DC50 was < 10 nM and the Dmax fell in the range of 75 to 85%. Moreover, at SMARCA2-HiBiT, the DC50 was < 10 nM and the Dmax was > 85%.
`CC1CC(C(=O)N2CCN3c4cc(-c5ccccc5O)nnc4NC[C@H]3C2)CCN1CC1CCN(c2ccc3c(c2)C(=O)N(C2CCC(=O)NC2=O)C3)CC1` (stereo partly drawn) [Example 265, 3-(6-(4-((4-((S)-2-(2-hydroxyphenyl)-6,6a,7,8,9,10-hexahydro-5H-pyrazino[1′,2′:4,5]pyrazino[2,3-c]pyridazine-8-carbonyl)-2-methylpiperidin-1-yl)methyl)piperidin-1-yl)-1-oxoisoindolin-2-yl)piperidine-2,6-dione]: at SMARCA4-HiBiT, the DC50 was in the range of 10 to 100 nM and the Dmax lay in the range of 75 to 85%. Further, on SMARCA2-HiBiT, the DC50 is < 10 nM and the Dmax lay within 75 to 85%.
For `CC1CN(CC2CCN(c3ccc4c(c3)C(=O)N(C3CCC(=O)NC3=O)C4)CC2)CC(C)N1C(=O)N1CCN2c3cc(-c4ccccc4O)nnc3NC[C@H]2C1` (stereo partly drawn) [Example 266, 3-(6-(4-((4-((S)-2-(2-hydroxyphenyl)-6,6a,7,8,9,10-hexahydro-5H-pyrazino[1′,2′:4,5]pyrazino[2,3-c]pyridazine-8-carbonyl)-3,5-dimethylpiperazin-1-yl)methyl)piperidin-1-yl)-1-oxoisoindolin-2-yl)piperidine-2,6-dione], on SMARCA4-HiBiT, the DC50 was < 10 nM and the Dmax is > 85%. On SMARCA2-HiBiT, the DC50 was < 10 nM and the Dmax was > 85%.
Consider `O=C1CCC(N2Cc3cc(N4CCO[C@@H](CN5C[C@@H]6[C@H](C5)[C@H]6CN5CCN6c7cc(-c8ccccc8O)nnc7NC[C@H]6C5)C4)ccc3C2=O)C(=O)N1` (stereo partly drawn) [Example 267, 3-(5-((S)-2-(((1R,5S,6R)-6-(((S)-2-(2-hydroxyphenyl)-5,6,6a,7,9,10-hexahydro-8H-pyrazino[1′,2′:4,5]pyrazino[2,3-c]pyridazin-8-yl)methyl)-3-azabicyclo[3.1.0]hexan-3-yl)methyl)morpholino)-1-oxoisoindolin-2-yl)piperidine-2,6-dione], for which, at SMARCA4-HiBiT, the DC50 was < 10 nM and the Dmax is 75 to 85%. At SMARCA2-HiBiT, the DC50 is < 10 nM and the Dmax is > 85%.
As for `O=C1CCC(N2Cc3cc(N4CCO[C@H](CN5C[C@@H]6[C@H](C5)[C@H]6CN5CCN6c7cc(-c8ccccc8O)nnc7NC[C@H]6C5)C4)ccc3C2=O)C(=O)N1` (stereo partly drawn) [Example 268, 3-(5-((R)-2-(((1R,5S,6S)-6-(((S)-2-(2-hydroxyphenyl)-5,6,6a,7,9,10-hexahydro-8H-pyrazino[1′,2′:4,5]pyrazino[2,3-c]pyridazin-8-yl)methyl)-3-azabicyclo[3.1.0]hexan-3-yl)methyl)morpholino)-1-oxoisoindolin-2-yl)piperidine-2,6-dione], on SMARCA4-HiBiT, the DC50 is < 10 nM and the Dmax was in the range of 50 to 75%. Further, on SMARCA2-HiBiT, the DC50 is < 10 nM and the Dmax is 75 to 85%.
`CCC1CN(CC2CCN(c3ccc4c(c3)C(=O)N(C3CCC(=O)NC3=O)C4=O)CC2)CCN1C(=O)N1CCN2c3cc(-c4ccccc4O)nnc3NC[C@H]2C1` (stereo partly drawn) [Example 269, 2-(2,6-dioxopiperidin-3-yl)-5-(4-((3-ethyl-4-((S)-2-(2-hydroxyphenyl)-6,6a,7,8,9,10-hexahydro-5H-pyrazino[1′,2′:4,5]pyrazino[2,3-c]pyridazine-8-carbonyl)piperazin-1-yl)methyl)piperidin-1-yl)isoindoline-1,3-dione]: on SMARCA4-HiBiT, the DC50 lay within 10 to 100 nM and the Dmax fell in the range of 50 to 75%. Besides, at SMARCA2-HiBiT, the DC50 is < 10 nM and the Dmax lay in the range of 75 to 85%.
On the same counts, the results for `CCC1CN(CC2CCN(c3ccc4c(c3)C(=O)N(C3CCC(=O)NC3=O)C4)CC2)CCN1C(=O)N1CCN2c3cc(-c4ccccc4O)nnc3NC[C@H]2C1` (stereo partly drawn) [Example 270, 3-(6-(4-((3-ethyl-4-((S)-2-(2-hydroxyphenyl)-6,6a,7,8,9,10-hexahydro-5H-pyrazino[1′,2′:4,5]pyrazino[2,3-c]pyridazine-8-carbonyl)piperazin-1-yl)methyl)piperidin-1-yl)-1-oxoisoindolin-2-yl)piperidine-2,6-dione] are < 10 nM, > 85%, < 10 nM and > 85%.
